Source: US11077090B2, “Compounds and compositions and uses thereof” (Sunovion Pharmaceuticals Inc., priority 2016, dated 2021)
Like-named read-outs stand apart in the source and are kept apart here.

Tested on: compound-treated mice
Test: Neuropharmacological assay (SmartCube): behavioral activity signature and minimal effective dose
Type: in vivo
Details: for minimal effective dose: Mus musculus, ip; for AD: ADHD (probability of activity signature) / AG: analgesic (probability of activity signature) / AX: anxiolytic (probability of activity signature) / CE: cognitive enhancer (probability of activity signature) / DP: anti-depressant (probability of activity signature) / MS: mood stabilizer (probability of activity signature) / PS: anti-psychotic (probability of activity signature) / SD: sedative hypnotic (probability of activity signature) / UN: uncharacterized CNS activity (probability of activity signature): i.p. 15 min before test, most efficacious dose(s)
Summary of the method: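 Video-recorded behavior is compared algorithmically against a reference-compound database, yielding class probabilities (best dose reported). Compounds given i.p. in NMP/PEG/propylene glycol 15 min pre-test at 3 doses; potency as MED, the dose (mpk, range usually 0.3–30) reaching ≥50% total activity.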

[1] = MED = dose having 50% or more total activity, read-out: Potency: minimal effective dose (MED)
[2] = MED = dose having 50% or more total activity, read-out: Potency: minimal effective dose (MED), binned

Row | SMILES | minimal effective dose [1] [mg/kg] | AD: ADHD (probability of activity signature) | AG: analgesic (probability of activity signature) | AX: anxiolytic (probability of activity signature) | CE: cognitive enhancer (probability of activity signature) | DP: anti-depressant (probability of activity signature) | MS: mood stabilizer (probability of activity signature) | PS: anti-psychotic (probability of activity signature) | SD: sedative hypnotic (probability of activity signature) | UN: uncharacterized CNS activity (probability of activity signature) | minimal effective dose [2] [mg/kg] | Potency: minimal effective dose (MED), binned (MED = dose having 50% or more total activity)
1 | Cc1ccc2c(c1)C(N)C(C)(C)COC2.Cl (stereo not drawn) [Example 63, 4,4,7-Trimethyl-1,3,4,5-tetrahydrobenzo[c]oxepin-5-amine hydrochloride] | 10 to 30 | + (LOQ ≤ + <5%) | ++ (5% ≤ ++ <25%) | ++ (5% ≤ ++ <25%) | ++ (5% ≤ ++ <25%) | ++ (5% ≤ ++ <25%) | + (LOQ ≤ + <5%) | + (LOQ ≤ + <5%) | + (LOQ ≤ + <5%) | ++ (5% ≤ ++ <25%) |  | 
2 | CCCN[C@H]1c2ccccc2CO[C@H]1C.Cl [Example 272] |  | + (LOQ ≤ + <5%) | + (LOQ ≤ + <5%) | ++ (5% ≤ ++ <25%) | + (LOQ ≤ + <5%) | + (LOQ ≤ + <5%) | ++ (5% ≤ ++ <25%) | ++ (5% ≤ ++ <25%) | ++ (5% ≤ ++ <25%) | ++ (5% ≤ ++ <25%) | 3 to 10 | 
3 | CN(C)C1COCc2ccccc21.Cl (stereo not drawn) [Example 60, N,N-dimethylisochroman-4-amine hydrochloride] | 10 to 30 | + (LOQ ≤ + <5%) | ++ (5% ≤ ++ <25%) | +++ (25% ≤ +++ <50%) | ++ (5% ≤ ++ <25%) | ++ (5% ≤ ++ <25%) | + (LOQ ≤ + <5%) | ++ (5% ≤ ++ <25%) | + (LOQ ≤ + <5%) | + (LOQ ≤ + <5%) |  | 
4 | N[C@@H]1COCc2ccc(Cl)c(Cl)c21 (single isomer, unassigned) [Example 119] | < 3 | + (LOQ ≤ + <5%) | ++ (5% ≤ ++ <25%) | +++ (25% ≤ +++ <50%) | ++ (5% ≤ ++ <25%) | ++ (5% ≤ ++ <25%) | + (LOQ ≤ + <5%) | ++ (5% ≤ ++ <25%) | ++ (5% ≤ ++ <25%) | ++++ (50% ≤ ++++) |  | 
5 | Cl.NC1COCc2cc(F)ccc21 (stereo not drawn) [Example 3] | 10 to 30 | + (LOQ ≤ + <5%) | ++ (5% ≤ ++ <25%) | ++ (5% ≤ ++ <25%) | + (LOQ ≤ + <5%) | ++ (5% ≤ ++ <25%) | + (LOQ ≤ + <5%) | + (LOQ ≤ + <5%) | ++ (5% ≤ ++ <25%) | +++ (25% ≤ +++ <50%) |  | 
6 | Cc1cccc2c1COCCC2N.Cl (stereo not drawn) [Example 37] | 10 to 30 | + (LOQ ≤ + <5%) | ++ (5% ≤ ++ <25%) | ++ (5% ≤ ++ <25%) | ++ (5% ≤ ++ <25%) | + (LOQ ≤ + <5%) | + (LOQ ≤ + <5%) | ++ (5% ≤ ++ <25%) | + (LOQ ≤ + <5%) | +++ (25% ≤ +++ <50%) |  | 
7 | C[C@@H]1OCc2ccc(F)cc2[C@@H]1N.Cl [Example 88] | < 3 | + (LOQ ≤ + <5%) | ++ (5% ≤ ++ <25%) | +++ (25% ≤ +++ <50%) | ++ (5% ≤ ++ <25%) | + (LOQ ≤ + <5%) | + (LOQ ≤ + <5%) | ++ (5% ≤ ++ <25%) | ++ (5% ≤ ++ <25%) | +++ (25% ≤ +++ <50%) |  | 
8 | CC(C)c1ccc2c(c1)C(N)COC2.Cl (stereo not drawn) [Example 8, 6-Isopropylisochroman-4-amine hydrochloride] | 10 to 30 | + (LOQ ≤ + <5%) | ++ (5% ≤ ++ <25%) | ++ (5% ≤ ++ <25%) | ++ (5% ≤ ++ <25%) | ++ (5% ≤ ++ <25%) | + (LOQ ≤ + <5%) | ++ (5% ≤ ++ <25%) | +++ (25% ≤ +++ <50%) | ++ (5% ≤ ++ <25%) |  | 
9 | Cc1cccc2c1CO[C@H](C)[C@H]2N.Cl [Example 98] | 3 to 10 | + (LOQ ≤ + <5%) | ++ (5% ≤ ++ <25%) | ++ (5% ≤ ++ <25%) | ++ (5% ≤ ++ <25%) | ++ (5% ≤ ++ <25%) | + (LOQ ≤ + <5%) | ++ (5% ≤ ++ <25%) | ++ (5% ≤ ++ <25%) | ++++ (50% ≤ ++++) |  | 
10 | C[C@@H]1OCc2ccc(F)cc2[C@@H]1N [Example 185] |  | + (LOQ ≤ + <5%) | ++ (5% ≤ ++ <25%) | +++ (25% ≤ +++ <50%) | ++ (5% ≤ ++ <25%) | + (LOQ ≤ + <5%) | + (LOQ ≤ + <5%) | ++ (5% ≤ ++ <25%) | + (LOQ ≤ + <5%) | ++++ (50% ≤ ++++) | < 3 | 
11 | C[C@@H]1OC[C@@H](N)c2cc(F)ccc21.Cl [Example 206] |  | + (LOQ ≤ + <5%) | ++ (5% ≤ ++ <25%) | ++++ (50% ≤ ++++) | ++ (5% ≤ ++ <25%) | ++ (5% ≤ ++ <25%) | + (LOQ ≤ + <5%) | ++ (5% ≤ ++ <25%) | + (LOQ ≤ + <5%) | +++ (25% ≤ +++ <50%) | 3 to 10 | 
12 | Cl.NC1COCc2ccc3c(c21)C1CCC3C1 (single isomer, unassigned) [Example 163] |  | + (LOQ ≤ + <5%) | ++ (5% ≤ ++ <25%) | ++ (5% ≤ ++ <25%) | ++ (5% ≤ ++ <25%) | ++ (5% ≤ ++ <25%) | + (LOQ ≤ + <5%) | +++ (25% ≤ +++ <50%) | ++ (5% ≤ ++ <25%) | +++ (25% ≤ +++ <50%) |  | B (>3 to 10 mpk)
13 | CCN(C)C(=O)Oc1ccc2c(c1)[C@H](N(C)C)[C@H](C)OC2.Cl [Example 287] |  | + (LOQ ≤ + <5%) | + (LOQ ≤ + <5%) | + (LOQ ≤ + <5%) | + (LOQ ≤ + <5%) | + (LOQ ≤ + <5%) | + (LOQ ≤ + <5%) | + (LOQ ≤ + <5%) | ++ (5% ≤ ++ <25%) | + (LOQ ≤ + <5%) | > 30 | 
14 | Cc1ccc2c(c1)C(N)COC2.Cl (stereo not drawn) [Example 26] | < 3 | + (LOQ ≤ + <5%) | ++ (5% ≤ ++ <25%) | ++ (5% ≤ ++ <25%) | ++ (5% ≤ ++ <25%) | ++ (5% ≤ ++ <25%) | + (LOQ ≤ + <5%) | ++ (5% ≤ ++ <25%) | + (LOQ ≤ + <5%) | ++++ (50% ≤ ++++) |  | 
15 | Cc1ccc2c(c1)[C@H](N)CCOC2 (single isomer, unassigned) [Example 115] | 3 to 10 | + (LOQ ≤ + <5%) | ++ (5% ≤ ++ <25%) | ++ (5% ≤ ++ <25%) | ++ (5% ≤ ++ <25%) | ++ (5% ≤ ++ <25%) | + (LOQ ≤ + <5%) | +++ (25% ≤ +++ <50%) | ++ (5% ≤ ++ <25%) | +++ (25% ≤ +++ <50%) |  | 
